{"source": "patent US7253139B2", "about": "“Surfactant preparations comprising α-hydroxy acids” (Cognis Deutschland GmbH & Co. KG, priority 2001, dated 2007)", "key": {"[1]": {"test": "Determination of surface tension, Wilhelmy plate method (DIN 53914)", "format": "physicochemical", "conditions": "added to anionic surfactant (Texapon NSO)", "experimental": "Determination of Surface Activity\nSurface activity was determined to DIN 53914. To this end, the solution to be tested was tested by the Wilhelmy plate method (plate PT 11) at 21±1° C. The preparations according to the invention are intended to have a surface activity of at least 20 mN/m, preferably at least 25 mN/m and more particularly at least 30 mN/m, based on the active substance content of 5% by weight.\nThe surface tension of the surfactant solution containing tartaric acid was compared with that of the pure surfactant solution (Texapon® NSO, sodium lauryl ether sulfate; Cognis, Dusseldorf) by conducting measurements at 21±1° C. using the Wilhelmy plate method (plate PT 11) to DIN 53914."}, "[2]": {"test": "Determination of foaming behavior, rotor foam method", "format": "physicochemical", "conditions": "added to anionic surfactant (Texapon NSO)", "experimental": "To determine foaming behavior, the foaming kinetics after 30 seconds and the foam potential after 60 s and 180 s were measured by the rotor foam method (DIN 13996 in preparation). The rotor foam tester consists of a heatable, double-walled cylindrical glass vessel with an internal diameter of 17.5 cm. A scale in mm is provided on the cylindrical glass vessel for reading off the foam height and the liquid level. In addition, the glass vessel is provided with a Styropor lid which is used both to cover and to insulate the vessel. The stirrer consists of a special stirring head with a stirrer shaft 28 cm in length and 1 cm in diameter and a JK stirrer with a digital revolution counter. A thermostat, a stopwatch and a thermometer (digital) are also required.\nThe test solution was prepared with water of a certain hardness (15° dH). 200 ml of the sample preheated to 30±1° C. were slowly poured in at the rim of the glass vessel which was covered with the Styropor lid when the required temperature of 30±1° C. had been reached. The rotor speed was 1300 r.p.m.\nThe first foam height value was determined after 30 seconds. To this end, the stirrer was switched off for at most 10 seconds. The foam volume was then determined after 60 and 180 seconds."}}}
{"compound": "O=C(O)C(O)C(O)C(=O)O", "note": "(stereo not shown) [tartaric acid]", "values": [{"measurement": "Effect of the addition on the surface activity of the anionic surfactant", "setting": "[1]", "result": "does not significantly affect"}, {"measurement": "Effect of the addition on the foam behavior of the anionic surfactant", "setting": "[2]", "result": "does not significantly affect"}]}
{"compound": "laureth-4-citrate", "values": [{"measurement": "Effect of the addition on the surface activity of the anionic surfactant", "setting": "[1]", "result": "does not significantly affect"}, {"measurement": "Effect of the addition on the foam behavior of the anionic surfactant", "setting": "[2]", "result": "does not significantly affect"}]}
